The record followed here is patent US6465716B2, “Nod factor binding protein from legume roots” (The Regents of the University of California, priority 1997, dated 2002).

Data set [1] concerns the target T1, NBP46 (Vigna unguiculata, UniProt Q9XFC9). Kind of data set: phosphatase (phosphohydrolase) assay of NBP46. It is filed as biochemical, Dolichos biflorus. As to conditions: in words; for hydrolysis of phosphate from substrate by NBP46 (phosphohydrolase activity): substrate specificity. The method, then:
(§1) The sequence similarities found between NBP46 and the above enzymes prompted the testing of NBP46 for phosphohydrolase activity. The reactions were conducted in 300 μL of 60 mM MOPS, pH 6.8, containing 1 mM MgCl2 in a microtiter plate using a multichannel pipette. At various time points up to 4 minutes, 30 or 60 μL aliquots were removed and assayed for inorganic phosphate by a photometric microtiter assay (Drueckes, P., et al., Anal. Biochem. 230:173 (1995)). Conditions were chosen so that less than 10% of the total substrate was converted to product, and the initial velocity (v) was determined from the above rate measurements.
(§2) N-BP46 (201 ng/ml) was incubated at 25° C. in the presence of various concentrations of substrate in a final volume of 100 μl of 60 mM MOPS, pH 6.8, containing 1 mM MgCl2. The reactions were conducted in a microtiter plate using a multichannel pipette. At various time points, 30 μl aliquots were removed and assayed for inorganic phosphate by a photometric microtiter assay (Drueckes, P. et al. Anal. Biochem. 230:173 (1995)), modified by using four parts ammonium molybdate reagent to one part 10% ascorbate for the reagent mixture. Conditions were chosen so that less than 10% of the total substrate was converted to product.

Data set [2] concerns the target T1, NBP46. The data set is described as follows: competitive binding assay with chitin as solid phase: inhibition of binding of 125I-NBP46 to chitin. More on the design: species or system Dolichos biflorus. As to conditions: for inhibition of binding of 125I-NBP46 to chitin: relative inhibition, in words. The method, then:
B. japonicum USDA110 Nod factor (^▪); R. sp. NGR234(NGRA) Nod factor (^▴); R. sp. NGR234(NGRB) Nod factor (∇); R. meliloti Nod factor (^●), N-acetylglucosamine (□), chitin disaccharide (^▾); chitin tetrasaccharide (Δ); chitin pentasaccharide (♦), chitin hexasaccharide (O).
Using chitin as a solid phase, a competitive binding assay was utilized to examine the carbohydrate specificity of this protein (FIG. 3).
Solid phase binding assays were conducted using iodinated NBP46 and purified shrimp chitin powder (Sigma Chemical Company, St. Louis, Mo.), which was N-acetylated prior to use with 15 mM acetic anhydride in 0.5 M NaHCO3 for one hour at room temperature. The assays were conducted in a final volume of 100 μl of 10 mM MOPS buffer, pH 7.2, containing 0.02% Tween-20 and 0.01% NaN3.

Data set [3] deals with T1, NBP46. Kind of data set: competitive solid phase assay: inhibition of binding of 125I-NBP46 to HBG A+H-Sepharose. The arrangement: species or system Dolichos biflorus. As to conditions: up to 50 mM concentrations. The source says:
In a preferred embodiment, a competitive solid phase assay is used to measure NBP46 activity (Etzler, M. E., Glycoconj. J. 11:395 (1994)). This assay measures the ability of various ligands to inhibit the binding of labeled NBP46 protein to pronase-digested hog gastric mucin blood group A+H substance (HBG A+H) conjugated to Sepharose® (Quinn, J. M. & Etzler, M. E., Arch. Biochem. Biophys. 258:535 (1987)).
The monomeric nature of NBP46 in solution precluded the use of conventional precipitin or agglutination assays in determining the carbohydrate binding specificity of this lectin. Therefore a complex carbohydrate binding assay was employed (Etzler, M. E., Glycoconj. J. 11:395 (1994)).
Hog blood group A+H substance was isolated from hog gastric mucin (Etzler, M. E., Glyconj. J. 11:395 (1994)) and de-N-acetylated as described in Etzler, M. E., et al., Arch. Biochem. Biophys. 141:588 (1970). After incubation at room temperature overnight, binding was measured as previously described (Etzler, M. E., Glyconj. J. 11:395 (1994)).

Substrate in data set [4]: Nc1ncnc2c1ncn2[C@@H]1O[C@H](COP(=O)(O)OP(=O)(O)O)[C@@H](O)[C@H]1O
Kind of data set: phosphatase (phosphohydrolase) assay of NBP46. To be noted: other: 60 mM MOPS, pH 6.8, 1 mM MgCl2, 25.0 °C. In kind it is biochemical, Dolichos biflorus. The method, then: as §1, §2

Turning to `Nc1nc2c(ncn2[C@@H]2O[C@H](COP(=O)(O)OP(=O)(O)OP(=O)(O)O)[C@@H](O)[C@H]2O)c(=O)[nH]1` [GTP], at NBP46 [1], the “hydrolysis of phosphate from substrate by NBP46 (phosphohydrolase activity)” value (“hydrolysis of phosphate from substrate” below) was “broad specificity for nucleotide triphosphates”.

On to `O=C[C@H](O)[C@@H](O)[C@H](O)[C@H](O)COP(=O)(O)O` [glucose-6-phosphate], for which, on NBP46 [1], the “hydrolysis of phosphate from substrate” value is on record as “no activity”.

Turning to `O=P(O)(O)OP(=O)(O)O` [pyrophosphate], at NBP46 [1], the “hydrolysis of phosphate from substrate” value is “no activity”.

As for `Nc1ncnc2c1ncn2[C@@H]1O[C@H](COP(=O)(O)O)[C@@H](O)[C@H]1O` [AMP], the “hydrolysis of phosphate from substrate” value at NBP46 [1] is listed as “no activity”.

With `CC(=O)N[C@H]1[C@H](O[C@H]2[C@H](O)[C@@H](NC(C)=O)C(O)O[C@@H]2CO)O[C@H](CO)[C@@H](O)[C@@H]1O` (stereo partly drawn) [chitin disaccharide], the “inhibition of binding of 125I-NBP46 to chitin” value on NBP46 [2] is “approximately ten-fold better inhibition than the monosaccharide”.

`Nc1ncnc2c1ncn2[C@@H]1O[C@H](COP(=O)(O)OP(=O)(O)O)[C@@H](O)[C@H]1O` [ADP]: the “hydrolysis of phosphate from substrate” value at NBP46 [1] was “catalyzes the hydrolysis of phosphate”.

For the molecule `Nc1ncnc2c1ncn2[C@@H]1O[C@H](COP(=O)(O)OP(=O)(O)OP(=O)(O)O)[C@@H](O)[C@H]1O` [ATP], on NBP46 [1], the “hydrolysis of phosphate from substrate” value is listed as “catalyzes the hydrolysis of phosphate”.

As to `O=c1ccn([C@@H]2O[C@H](COP(=O)(O)OP(=O)(O)OP(=O)(O)O)[C@@H](O)[C@H]2O)c(=O)[nH]1` [UTP], at NBP46 [1], the “hydrolysis of phosphate from substrate” value was “broad specificity for nucleotide triphosphates”.

Regarding `C[C@H](O)[C@@H](O)[C@@H](O)[C@H](O)C=O` [L-fucose], the “inhibition of binding of 125I-NBP46 to HBG A+H-Sepharose” value at NBP46 [3] is “no significant inhibition”. At NBP46 [2] (concentrations up to 50 mM), the “inhibition of NBP46 binding to chitin” value is given as “No significant inhibition”.

As for `CC(=O)N[C@@H]1[C@@H](O)[C@H](O)[C@@H](CO)O[C@H]1O` [N-acetyl-D-glocosamine], the “phosphatase activity / Vmax of NBP46 after preincubation with ligand” value on NBP46 [1] (concentration range as worded) was “increase in enzyme activity is also obtained with low millimolar concentrations”. Also, the “inhibition of binding of 125I-NBP46 to chitin” value on NBP46 [2] is “Inhibition of binding was obtained with high concentrations”.

For `CCCCCC/C=C\CCCCCCCCCC(=O)O` [cis-vaccenic acid], the “inhibition of NBP46 binding to chitin” value on NBP46 [2] (concentrations up to 1.2 mM) is “No significant inhibition”.

Turning to `Nc1ccn([C@@H]2O[C@H](COP(=O)(O)OP(=O)(O)OP(=O)(O)O)[C@@H](O)[C@H]2O)c(=O)n1` [CTP], the “hydrolysis of phosphate from substrate” value at NBP46 [1] is on record as “broad specificity for nucleotide triphosphates”.

`CC(=O)N[C@@H]1[C@@H](O)[C@H](O[C@@H]2O[C@H](CO)[C@@H](O[C@@H]3O[C@H](CO)[C@@H](O[C@@H]4O[C@H](CO)[C@@H](O[C@@H]5O[C@H](CO)[C@@H](O)[C@H](O)[C@H]5NC(C)=O)[C@H](O)[C@H]4NC(C)=O)[C@H](O)[C@H]3NC(C)=O)[C@H](O)[C@H]2NC(C)=O)[C@@H](CO)O[C@H]1O` [chitin pentasaccharide]: the “inhibition of binding of 125I-NBP46 to chitin” value at NBP46 [2] was “slightly better inhibitors than the disaccharide”.

For `CC(=O)N[C@H]1C(O)O[C@H](CO)[C@H](O)[C@@H]1O` (stereo partly drawn) [N-acetyl-D-galactosamine], the “inhibition of binding of 125I-NBP46 to HBG A+H-Sepharose” value at NBP46 [3] is given as “no significant inhibition”.

`CC(=O)NC1C(O)OC(CO)C(OC2OC(CO)C(OC3OC(CO)C(OC4OC(CO)C(OC5OC(CO)C(OC6OC(CO)C(O)C(O)C6NC(C)=O)C(O)C5NC(C)=O)C(O)C4NC(C)=O)C(O)C3NC(C)=O)C(O)C2NC(C)=O)C1O` (stereo not drawn) [chitin hexasaccharide]: the “inhibition of binding of 125I-NBP46 to chitin” value at NBP46 [2] was “slightly better inhibitors than the disaccharide”.

B1: NBP46 (Vigna unguiculata subsp. cylindrica) (protein)
chain: QYVGNSILLNHRKILPNQELLTSYAVIFDAGSSGSRVHVFNFDQNLDLLHIGNDLEFTKKIKPGLSSYADKPEKAAESLIPLLEEAEDVVPEELHPKTPLKLGATAGLRLLDGDAAEKILQAVREMFRNRSSLSVQPDAVSVIDGTQEGSYLWVTVNYLLGKLGKKFTKTVGVIDLGGASVQMAYAVSRNTAKNAPKPPQGEDPYMKKLVLKGKKYDLYVHSYLRYGNDAARVKIFKTTDGAASPCLLAGYEDIYRYSGESYNIYGPTSGANFNECRDLALQILRLNEPCSHENCTFGGIWDGGKGSGQKNLVVTSAFYYRSSEVGFVTPPNSKNRPLDFETAAKQACSLTFEEAKSTFPNVEKDKLPFVCVDFTYQYTLLVDGFGLDPEQEITVAEGIEYQDAIVETAWPLGTAIEAISSLPKFNRLMYFI
As a reminder, the Km is the substrate concentration at which the rate is half of its maximum. In the case of B1, the Km in data set [4] worked out at 615 µM.
